In patent publication US20160108049A1 (TAKEDA Gmbh, priority 2011, published 2016):

Columns and labels:
PDE4B1 = target: T1, PDE4B1 (Homo sapiens, UniProt Q07343); assay: Inhibition of PDE4 activity (PDE4B1, SPA assay); type: biochemical; conditions: recombinant PDE4B1, 0.5 μM cAMP; read-out: PDE4B1 Inhibitory values measured as -logIC50 (converted)
T1 construct: made in house; host or cells: SF21 insect cells (baculovirus; virus made in SF9 cells, pCR-Bac vector)
Outline: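 Baculovirus-expressed enzyme from SF21 cell 1000×g supernatant; substrate 0.5 μM [3H]cAMP in 20 mM Tris pH 7.4, 5 mM Mg2+, 0.1 mg/ml BSA, 10-20% conversion. 5 min preincubation at 37 °C, 15 min reaction, stopped by SPA beads with IBMX; IC50 by non-linear regression.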

human PDE5 = target: T2, human PDE5 (Homo sapiens, UniProt O76074); assay: Inhibition of PDE5 activity (platelet lysate, SPA assay); type: biochemical; conditions: 0.5 μM cGMP, read-out: PDE5 Inhibitory values measured as -logIC50 (converted)
T2 construct: from tissue; host or cells: human platelets from fresh donor blood (platelet lysate)
Outline: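 Human platelet lysate (10,000 g supernatant) served as PDE5 source, with 1 μM motapizone and 10 nM PDE2 inhibitor added, in Tris pH 7.4, 5 mM Mg2+, BSA. Substrate 0.5 μM [3H]cGMP, 10–20% conversion; 5 min preincubation then 15 min at 37 °C, stopped by SPA beads with IBMX. IC50 by non-linear regression.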

T1 sequence (Q07343 whole entry): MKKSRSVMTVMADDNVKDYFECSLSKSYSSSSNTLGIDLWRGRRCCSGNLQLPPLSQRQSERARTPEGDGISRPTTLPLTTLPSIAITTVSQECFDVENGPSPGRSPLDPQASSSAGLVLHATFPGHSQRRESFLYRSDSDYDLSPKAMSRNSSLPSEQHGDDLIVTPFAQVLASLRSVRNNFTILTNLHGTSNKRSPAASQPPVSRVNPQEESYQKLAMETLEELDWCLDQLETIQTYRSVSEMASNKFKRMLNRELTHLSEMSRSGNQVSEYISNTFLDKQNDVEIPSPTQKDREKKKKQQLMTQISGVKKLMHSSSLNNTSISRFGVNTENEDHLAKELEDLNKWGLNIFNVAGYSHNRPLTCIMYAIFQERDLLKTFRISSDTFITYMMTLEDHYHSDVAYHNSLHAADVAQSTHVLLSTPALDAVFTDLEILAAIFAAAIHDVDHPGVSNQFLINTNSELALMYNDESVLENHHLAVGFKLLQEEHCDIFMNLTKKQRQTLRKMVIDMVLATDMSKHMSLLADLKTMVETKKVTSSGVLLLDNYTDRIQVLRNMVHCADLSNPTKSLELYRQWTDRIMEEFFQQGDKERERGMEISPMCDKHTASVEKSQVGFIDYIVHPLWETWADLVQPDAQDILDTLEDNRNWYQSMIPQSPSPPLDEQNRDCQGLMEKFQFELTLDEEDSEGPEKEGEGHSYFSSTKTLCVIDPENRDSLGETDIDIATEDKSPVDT

Row | Compound | IC50 (PDE4B1) [nM] | IC50 (human PDE5) [nM]
1 | COc1cc(OCC2CC2)c(-c2ncnc3c(C(=O)N[C@H](Cc4ccccc4)C(=O)N4CCC(N5N=C(c6ccc(OC)c(OC)c6)CC(C)(C)C5=O)CC4)c[nH]c23)cc1F [Example 68, 4-[2-(cyclopropylmethoxy)-5-fluoro-4-methoxyphenyl]-N-[(2R)-1-{4-[3-(3,4-dimethoxyphenyl)-5,5-dimethyl-6-oxo-5,6-dihydropyridazin-1(4H)-yl]piperidin-1-yl}-1-oxo-3-phenylpropan-2-yl]-5H-pyrrolo[3,2-d]pyrimidine-7-carboxamide] | 1 to 10 | 1 to 10
2 | COc1cc(OCC2CC2)c(-c2ncnc3c(C(=O)N[C@H](Cc4ccccc4)C(=O)N4CCC(N5N=C(c6ccc(OC)c(OC)c6)CC(C)(C)C5=O)CC4)c(C)[nH]c23)cc1F [Example 69, 4-[2-(cyclopropylmethoxy)-5-fluoro-4-methoxyphenyl]-N-[(2R)-1-{4-[3-(3,4-dimethoxyphenyl)-5,5-dimethyl-6-oxo-5,6-dihydropyridazin-1(4H)-yl]piperidin-1-yl}-1-oxo-3-phenylpropan-2-yl]-6-methyl-5H-pyrrolo[3,2-d]pyrimidine-7-carboxamide] | 1 to 10 | 1 to 10
3 | CC[C@H](C)[C@H](NC(=O)c1c[nH]c2c(-c3c(OCC4CC4)ccc4c3OCO4)ncnc12)C(=O)N1CCC(N2N=C(c3ccc(OC)c(OC)c3)[C@H]3CCCC[C@H]3C2=O)CC1 [Example 71, 4-[5-(cyclopropylmethoxy)-1,3-benzodioxol-4-yl]-N-[(2S,3S)-1-{4-[(4aS,8aR)-4-(3,4-dimethoxyphenyl)-1-oxo-4a,5,6,7,8,8a-hexahydrophthalazin-2(1H)-yl]piperidin-1-yl}-3-methyl-1-oxopentan-2-yl]-5H-pyrrolo[3,2-d]pyrimidine-7-carboxamide] | < 1 | 1 to 10
4 | COc1ccc(C2=NN(C3CCN(C(=O)[C@H](NC(=O)c4c[nH]c5c(-c6c(OCC7CC7)ccc7c6OCO7)ncnc45)C4CCCCC4)CC3)C(=O)[C@@H]3CCCC[C@H]23)cc1OC [Example 72, N-[(1R)-1-cyclohexyl-2-{4-[(4aS,8aR)-4-(3,4-dimethoxyphenyl)-1-oxo-4a,5,6,7,8,8a-hexahydrophthalazin-2(1H)-yl]piperidin-1-yl}-2-oxoethyl]-4-[5-(cyclopropylmethoxy)-1,3-benzodioxol-4-yl]-5H-pyrrolo[3,2-d]pyrimidine-7-carboxamide] | < 1 | 1 to 10
5 | COc1ccc(C2=NN(C3CCN(C(=O)[C@@H](NC(=O)c4c[nH]c5c(-c6c(OCC7CC7)ccc7c6OCO7)ncnc45)C4CCCCC4)CC3)C(=O)[C@@H]3CCCC[C@H]23)cc1OC [Example 73, N-[(1S)-1-cyclohexyl-2-{4-[(4aS,8aR)-4-(3,4-dimethoxyphenyl)-1-oxo-4a,5,6,7,8,8a-hexahydrophthalazin-2(1H)-yl]piperidin-1-yl}-2-oxoethyl]-4-[5-(cyclopropylmethoxy)-1,3-benzodioxol-4-yl]-5H-pyrrolo[3,2-d]pyrimidine-7-carboxamide] | 1 to 10 | 1 to 10
6 | COc1ccc(C2=NN(C3CCN(C(=O)[C@H](Cc4cccs4)NC(=O)c4c(C)[nH]c5c(-c6c(OCC7CC7)ccc7c6OCO7)ncnc45)CC3)C(=O)[C@@H]3CCCC[C@H]23)cc1OC [Example 74, 4-[5-(cyclopropylmethoxy)-1,3-benzodioxol-4-yl]-N-[(2S)-1-{4-[(4aS,8aR)-4-(3,4-dimethoxyphenyl)-1-oxo-4a,5,6,7,8,8a-hexahydrophthalazin-2(1H)-yl]piperidin-1-yl}-1-oxo-3-(thiophen-2-yl)propan-2-yl]-6-methyl-5H-pyrrolo[3,2-d]pyrimidine-7-carboxamide] | < 1 | < 1
7 | COc1ccc(C2=NN(C3CCN(C(=O)[C@H](Cc4cccs4)NC(=O)c4c[nH]c5c(-c6c(OCC7CC7)ccc7c6OCO7)ncnc45)CC3)C(=O)[C@@H]3CCCC[C@H]23)cc1OC [Example 75, 4-[5-(cyclopropylmethoxy)-1,3-benzodioxol-4-yl]-N-[(2S)-1-{4-[(4aS,8aR)-4-(3,4-dimethoxyphenyl)-1-oxo-4a,5,6,7,8,8a-hexahydrophthalazin-2(1H)-yl]piperidin-1-yl}-1-oxo-3-(thiophen-2-yl)propan-2-yl]-5H-pyrrolo[3,2-d]pyrimidine-7-carboxamide] | < 1 | 1 to 10
8 | COc1ccc(C2=NN(C3CCN(C(=O)CCNC(=O)c4c[nH]c5c(-c6c(OCC7CC7)ccc7c6OCO7)ncnc45)CC3)C(=O)[C@@H]3CCCC[C@H]23)cc1OC [Example 76, 4-[5-(cyclopropylmethoxy)-1,3-benzodioxol-4-yl]-N-(3-{4-[(4aS,8aR)-4-(3,4-dimethoxyphenyl)-1-oxo-4a,5,6,7,8,8a-hexahydrophthalazin-2(1H)-yl]piperidin-1-yl}-3-oxopropyl)-5H-pyrrolo[3,2-d]pyrimidine-7-carboxamide] | 1 to 10 | 1 to 10
9 | COc1ccc(C2=NN(C3CCN(C(=O)C[C@@H](Cc4ccccc4)NC(=O)c4c[nH]c5c(-c6c(OCC7CC7)ccc7c6OCO7)ncnc45)CC3)C(=O)[C@@H]3CCCC[C@H]23)cc1OC [Example 77, 4-[5-(cyclopropylmethoxy)-1,3-benzodioxol-4-yl]-N-[(2R)-4-{4-[(4aS,8aR)-4-(3,4-dimethoxyphenyl)-1-oxo-4a,5,6,7,8,8a-hexahydrophthalazin-2(1H)-yl]piperidin-1-yl}-4-oxo-1-phenylbutan-2-yl]-5H-pyrrolo[3,2-d]pyrimidine-7-carboxamide] | 1 to 10 | 1 to 10
10 | COc1ccc(C2=NN(C3CCN(C(=O)C[C@@H](Cc4ccccc4)NC(=O)c4c[nH]c5c(-c6c(OCC7CC7)ccc7c6OCO7)ncnc45)CC3)C(=O)C(C)(C)C2)cc1OC [Example 78, 4-[5-(cyclopropylmethoxy)-1,3-benzodioxol-4-yl]-N-[(2R)-4-{4-[3-(3,4-dimethoxyphenyl)-5,5-dimethyl-6-oxo-5,6-dihydropyridazin-1(4H)-yl]piperidin-1-yl}-4-oxo-1-phenylbutan-2-yl]-5H-pyrrolo[3,2-d]pyrimidine-7-carboxamide] | 1 to 10 | 1 to 10
11 | COc1ccc(C2=NN(C3CCN(C(=O)[C@H](CCC(=O)N4CCCCC4)NC(=O)c4c[nH]c5c(-c6c(OCC7CC7)ccc7c6OCO7)ncnc45)CC3)C(=O)[C@@H]3CCCC[C@H]23)cc1OC [Example 79, 4-[5-(cyclopropylmethoxy)-1,3-benzodioxol-4-yl]-N-[(2S)-1-{4-[(4aS,8aR)-4-(3,4-dimethoxyphenyl)-1-oxo-4a,5,6,7,8,8a-hexahydrophthalazin-2(1H)-yl]piperidin-1-yl}-1,5-dioxo-5-(piperidin-1-yl)pentan-2-yl]-5H-pyrrolo[3,2-d]pyrimidine-7-carboxamide] | 1 to 10 | 1 to 10
12 | COc1ccc(C2=NN(C3CCN(C(=O)[C@H](CCC(=O)N4CCCCC4)NC(=O)c4c(C)[nH]c5c(-c6c(OCC7CC7)ccc7c6OCO7)ncnc45)CC3)C(=O)[C@@H]3CCCC[C@H]23)cc1OC [Example 83, 4-[5-(cyclopropylmethoxy)-1,3-benzodioxol-4-yl]-N-[(2S)-1-{4-[(4aS,8aR)-4-(3,4-dimethoxyphenyl)-1-oxo-4a,5,6,7,8,8a-hexahydrophthalazin-2(1H)-yl]piperidin-1-yl}-1,5-dioxo-5-(piperidin-1-yl)pentan-2-yl]-6-methyl-5H-pyrrolo[3,2-d]pyrimidine-7-carboxamide] | 1 to 10 | < 1
13 | COc1cc(OCC2CC2)c(-c2ncnc3c(C(=O)N[C@@H](CCC(=O)N4CCCCC4)C(=O)N4CCC(N5N=C(c6ccc(OC)c(OC)c6)[C@H]6CCCC[C@H]6C5=O)CC4)c(C)[nH]c23)cc1F [Example 84, 4-[2-(cyclopropylmethoxy)-5-fluoro-4-methoxyphenyl]-N-[(2S)-1-{4-[(4aS,8aR)-4-(3,4-dimethoxyphenyl)-1-oxo-4a,5,6,7,8,8a-hexahydrophthalazin-2(1H)-yl]piperidin-1-yl}-1,5-dioxo-5-(piperidin-1-yl)pentan-2-yl]-6-methyl-5H-pyrrolo[3,2-d]pyrimidine-7-carboxamide] | 1 to 10 | < 1
14 | COc1ccc(C2=NN(C3CCN(C(=O)[C@@H](Cc4cscn4)NC(=O)c4c[nH]c5c(-c6c(OCC7CC7)ccc7c6OCO7)ncnc45)CC3)C(=O)[C@@H]3CCCC[C@H]23)cc1OC [Example 85, 4-[5-(cyclopropylmethoxy)-1,3-benzodioxol-4-yl]-N-[(2R)-1-{4-[(4aS,8aR)-4-(3,4-dimethoxyphenyl)-1-oxo-4a,5,6,7,8,8a-hexahydrophthalazin-2(1H)-yl]piperidin-1-yl}-1-oxo-3-(1,3-thiazol-4-yl)propan-2-yl]-5H-pyrrolo[3,2-d]pyrimidine-7-carboxamide] | < 1 | < 1
15 | COc1ccc(C2=NN(C3CCN(C(=O)[C@H](Cn4cccn4)NC(=O)c4c[nH]c5c(-c6c(OCC7CC7)ccc7c6OCO7)ncnc45)CC3)C(=O)[C@@H]3CCCC[C@H]23)cc1OC [Example 88, 4-[5-(cyclopropylmethoxy)-1,3-benzodioxol-4-yl]-N-[(2S)-1-{4-[(4aS,8aR)-4-(3,4-dimethoxyphenyl)-1-oxo-4a,5,6,7,8,8a-hexahydrophthalazin-2(1H)-yl]piperidin-1-yl}-1-oxo-3-(1H-pyrazol-1-yl)propan-2-yl]-5H-pyrrolo[3,2-d]pyrimidine-7-carboxamide] | 1 to 10 | 1 to 10
